Laboratory results taken from article PMC10091413, “Modeling the Orthosteric Binding Site of the G Protein-Coupled Odorant Receptor OR5K1” (Journal of Chemical Information and Modeling, 2023).
Residue numbers refer to the chain shown, from its start. Where two headings read alike, the source gives them in different places.

What was measured:
OR5K1 [1] = target: T1, OR5K1 (Homo sapiens, UniProt Q8NHB7); design: method as in PMID 34047404; details: cited from earlier work; for EC50: OR5K1 agonist activity, data retrieved from the literature
T1 construct: The protein-coding region of human OR5K1 (NM_001004736.3); IL-6-HaloTag (from expression plasmid pFN210A) (N); expressed in transfected cells; host or cells: HEK-293
T1 sequence (Q8NHB7 1-308): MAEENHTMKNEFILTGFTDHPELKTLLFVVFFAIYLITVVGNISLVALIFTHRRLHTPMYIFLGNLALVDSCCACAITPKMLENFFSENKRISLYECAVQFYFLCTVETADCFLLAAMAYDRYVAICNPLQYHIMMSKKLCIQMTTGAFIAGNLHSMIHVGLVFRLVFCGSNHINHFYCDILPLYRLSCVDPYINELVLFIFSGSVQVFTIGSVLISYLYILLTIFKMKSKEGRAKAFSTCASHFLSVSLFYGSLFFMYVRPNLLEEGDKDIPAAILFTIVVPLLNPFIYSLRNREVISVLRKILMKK

OR5K1 L104^3.32A = target: T2, OR5K1 L104^3.32A (Homo sapiens, UniProt Q8NHB7, L104A); assay: cAMP-luminescence concentration-response assay, mutant OR5K1 L104^3.32A in HEK-293 cells; assay type: cell-based; details: OR5K1 L104^3.32A mutant; mean ± SD, n = 4
T2 construct: The protein-coding region of human OR5K1 (NM_001004736.3); IL-6-HaloTag (from expression plasmid pFN210A) (N); expressed in transfected cells; host or cells: HEK-293
T2 sequence (Q8NHB7 1-308 L104A): T1 sequence (Q8NHB7 1-308) with L104A
Description: (§1) Mutants L104^3.32 and L255^6.51 were generated by PCR-based site-directed mutagenesis in two steps. Step one PCR was performed in two amplifications: one with the forward vector-internal primer and the reverse mutation-primer and the other with the forward mutation-primer and the reverse vector-internal primer. Amplification was performed with the touchdown approach described above. Both PCR amplicons were then purified and used as a template for step two. The two overlapping amplicons were annealed using the following touchdown program: denaturation (98 °C, 3 min), ten cycles containing denaturation (98 °C, 30 s), annealing (start 60 °C, 30 s), and extension (72 °C, 2 min). […]
(§2) We utilized HEK-293 cells,[101] a human embryonic kidney cell-line, as a test cell system for the functional expression of ORs.[102] […] The utilized pGloSensor-22F is a genetically engineered luciferase with a cAMP-binding pocket, allowing for measurements of a direct cAMP-dependent luminescence signal. […]
(§3) Concentration–response assays were measured 42 h post-transfection as described previously.[102] […] For luminescence measurements, the GloMax Discover microplate reader (Promega, Madison, USA) was used. After incubation for 50 min in the dark, the basal luminescence signal of each well was recorded thrice. […]

OR5K1 L255^6.51A = target: T3, OR5K1 L255^6.51A (Homo sapiens, UniProt Q8NHB7, L255A); assay: cAMP-luminescence concentration-response assay, mutant OR5K1 L255^6.51A in HEK-293 cells; assay type: cell-based; details: OR5K1 L255^6.51A mutant; mean ± SD, n = 4
T3 construct: The protein-coding region of human OR5K1 (NM_001004736.3); IL-6-HaloTag (from expression plasmid pFN210A) (N); expressed in transfected cells; host or cells: HEK-293
T3 sequence (Q8NHB7 1-308 L255A): T1 sequence (Q8NHB7 1-308) with L255A
Description: as §1, §2, §3

OR5K1 [2] = target: T1, OR5K1; assay: cAMP-luminescence (GloSensor) concentration-response assay, OR5K1 transiently expressed in HEK-293 cells; assay type: cell-based; details: OR5K1 agonist activity, tested in this work, mean ± SD, n = 4, last tested concentration 300 μM
Description: We utilized HEK-293 cells,[101] a human embryonic kidney cell-line, as a test cell system for the functional expression of ORs.[102] Cells were cultivated at 37 °C, 5% CO2, and 100% humidity in 4.5 g/L D-glucose containing DMEM with 10% fetal bovine serum, 2 mM L-glutamine, 100 U/mL penicillin, and 100 U/mL streptomycin. Cells were cultured in a 96-well format (Nunclon Delta Surface, #136102; Thermo Fisher Scientific, Schwerte, Germany) at 12,000 cells/well overnight. Then, cells were transfected utilizing 0.75 μL/well ViaFect (#E4981, Promega, USA) with the following constructs: 100 ng/well of the respective OR construct, 50 ng/well of chaperone RTP1S,[103] 50 ng/well of the G protein subunit Gαolf,[104],[105] olfactory G protein subunit Gγ13,[106] and 50 ng/well of pGloSensor-22F (Promega, Madison, USA).[107] The utilized pGloSensor-22F is a genetically engineered luciferase with a cAMP-binding pocket, allowing for measurements of a direct cAMP-dependent luminescence signal. All measurements were mock-controlled, i.e. pFN210A without OR was transfected in parallel.
as §3, with “thrice. Then the odorant, serially diluted in the physiological salt buffer with added Pluronic PE-10500 (BASF, Ludwigshafen, Germany), was applied to the cells, and luminescence was measured thrice after 10 min of incubation time.” for “thrice.”
The raw luminescence data obtained from the GloMax Discover microplate reader detection system were analyzed for concentration/response assays by averaging both data points of basal levels and data points after odorant application. For a given luminescence signal, the respective basal level was subtracted, and the now corrected data set was normalized to the maximum amplitude of the reference. […]

| Structure (SMILES) | EC50 (OR5K1 [1]) [µM] | further results |
| --- | --- | --- |
| CCc1ncc(C)nc1CC [Compound 1, 2,3-Diethyl-5-methylpyrazine] | 10.3 ± 1.06 | EC50 (OR5K1 L104^3.32A): 525 ± 92.3 µM; EC50 (OR5K1 L255^6.51A): 478 ± 185 µM |
| CCc1nc(C)cnc1C [Compound 2, 2-Ethyl-3,6-dimethylpyrazine] | – | EC50 (OR5K1 [2]; read-out: EC50): 14.8 ± 6.69 µM |
| C=CCc1ccc(OC)c(OC)c1 [Compound 3, Methyl eugenol] | 62.2 ± 1.45 | – |
| CCc1nccnc1CC [Compound 4, 2,3-Diethylpyrazine] | 94.4 ± 11.9 | – |
| CCc1nccnc1OC [Compound 5, 2-Ethyl-3-methoxypyrazine] | 97.4 ± 15.6 | – |
| Cc1cnc(C)c(C)n1 [Compound 6, 2,3,5-Trimethylpyrazine] | 139 ± 7.08 | – |
| CCc1nccnc1C [Compound 7, 2-Ethyl-3-methylpyrazine] | 538 ± 96.8 | – |
| COc1nccnc1C(C)C [Compound 9, 2-Isopropyl-3-methoxypyrazine] | 146 ± 8.83 | – |
| CCc1nccnc1C(C)=O [Compound 10, 2-Acetyl-3-ethylpyrazine] | 528 ± 167 | – |
| CC(=O)c1nccnc1C [Compound 11, 2-Acetyl-3-methylpyrazine] | 531 ± 27.6 | – |
| Cc1cncc(C)n1 [Compound 12, 2,6-Dimethylpyrazine] | 544 ± 19.5 | – |
| CCc1ncc(C)nc1C [Compound 13, 2-Ethyl-3,5-dimethylpyrazine] | – | EC50 (OR5K1 [2]): could not be measured to saturation; EC50 (OR5K1 [2]; read-out: EC50): > 300 µM |
| c1cnccn1 [pyrazine, reference compound] | – | activation of OR5K1 (OR5K1 [1]): does not activate |
